Measurements taken from article PMC10534486 (Pharmaceutics, 2023).
Read-outs that look alike come from different tables or passages of the source.

What was measured:
[1] = in vitro; type: in vitro ADME, rat
Method: […]. […] […].
The binding percentage (%) was calculated using the equation: Binding percentage %=CT−CF/CT×100 where CF represents the concentration of free drug measured in the ultrafiltrate and CT is the total drug concentration introduced into the ultrafiltration system before centrifugation.

[2] = Pharmacokinetics after oral administration of 20 mg/kg to CON and PHL rats; type: in vivo, Sprague–Dawley rats; conditions: for AUC(0-inf) / Cmax / CL renal / half-life / k el / bioavailability: po, 20 mg/kg; for CL renal: read-out: CLR (time-averaged renal clearance); for half-life: read-out: Terminal half-life; for k el: read-out: k (elimination rate constant) (converted); for bioavailability: read-out: F (absolute oral bioavailability)
Method: The rats were randomly assigned to one of two experimental groups: a control (CON) and a P-407-induced hyperlipidemia (PHL) group. P-407 was dissolved in cold sterile 0.9% NaCl-injectable solution and stored in a refrigerator for at least 6 h to ensure complete dissolution. Rats in the PHL group received a single intraperitoneal injection of 1 g/kg P-407, whereas rats in the CON group received a single intraperitoneal injection of an equal volume of 0.9% NaCl. Hyperlipidemia was defined as a total cholesterol concentration higher than 220 mg/dL or a low-density lipoprotein (LDL) cholesterol concentration higher than 160 mg/dL [29, 30].
Rats were anesthetized with ketamine (100 mg/kg) prior to surgical procedures. […] Prior to oral investigation, the rats were fasted overnight and only the carotid artery was cannulated for blood collection. The rats were allowed to recover for 3–4 h after surgical procedures prior to the performance of subsequent experiments.
. Blood samples (0.12 mL) were obtained at 0 (prior to drug administration), 1, 5, 15, 30, 45, 60, 90, 120, 180, and 240 min through the carotid artery. […]. Blood samples (0.12 mL) were collected through the carotid artery at 0 (prior to drug administration), 5, 15, 30, 45, 60, 90, 120, 180, 240, 360, and 480 min. All blood samples were centrifuged for 1 min at 8000× g and plasma (50 μL) samples were collected. After the blood samples were obtained, 0.3 mL of heparinized 0.9% NaCl solution (20 IU/mL) was immediately injected into the carotid artery to prevent blood clotting.
At 24 h, the rats were sacrificed and the abdomen of each was opened. The entire gastrointestinal tract of each rat was excised, cut into small pieces, and immersed in a beaker containing 50 mL of methanol. After evenly mixing the contents in the beaker, a 50 μL aliquot of each supernatant was withdrawn. The volumes of urine samples collected for 24 h after drug administration were measured and two 100 μL aliquots of each were collected.
The following pharmacokinetic parameters were determined by non-compartmental analysis (WinNonlin, Pharsight Co., Mountain View, CA, USA) using standard methods: terminal half-life, time-averaged total body (CL), renal (CLR), and nonrenal (CLNR) clearances, apparent volume of distribution at steady state (Vss), area under the plasma concentration–time curve from zero to infinity (AUC0–∞), and elimination rate constant (k). AUC0–∞ was calculated using the trapezoidal rule extrapolation method, whereas the maximum plasma concentration (Cmax) and time required to reach Cmax (Tmax) were determined directly from the plasma concentration–time curves. (R3-3) The absorption rate constants (ka) for oral administration were also estimated under the assumption of one-compartment model and first-order elimination.

[3] = Distribution of tofacitinib in tissues 30 min after intravenous administration; type: in vivo; conditions: Sprague-Dawley, rat; all tissues of CON and PHL rats, 30 min after intravenous 10 mg/kg; read-out: Tissue-to-plasma (T/P) ratios
Method: . Tissue samples, including fat, brain, kidney, heart, liver, large intestine, mesentery, lung, small intestine, muscle, stomach, and spleen, were removed from each rat, rinsed in phosphate-buffered saline (PBS, pH 7.4), and blotted dry with paper towels to remove any remaining blood. Approximately 1 g of each tissue was added to 4 volumes of homogenizing buffer, followed by homogenization (IKA Labortechnik, Staufen, Germany) and centrifugation at 8000× g for 10 min.

[4] = for CLR estimated from the free fraction in plasma: intravenous
[5] = cited from earlier work
[6] = system: P-gp; design: method as in PMID 24704892; conditions: cited from earlier work
[7] = in vivo; conditions: Sprague-Dawley, rat, plasma, iv, 10 mg/kg; for clearance: CL (time-averaged total body clearance); for CL renal: CLR (time-averaged renal clearance); for MRT: MRT (mean residence time); for half-life: Terminal half-life; for Vd: Vss (apparent volume of distribution at steady state); for k el: k (elimination rate constant)
[8] = Vmax, Km and CLint for disappearance of tofacitinib in hepatic microsomes
[9] = Vmax, Km and CLint for disappearance of tofacitinib in intestinal microsomes
[10] = Sprague-Dawley, rat, plasma, CON rats (n = 6)
[11] = Sprague-Dawley, rat, plasma, PHL rats (n = 7)
[12] = oral 20 mg/kg, CON rats (n = 6)
[13] = oral 20 mg/kg, PHL rats (n = 7)

Question: Which results are given for C[C@@H]1CCN(C(=O)CC#N)C[C@@H]1N(C)c1ncnc2[nH]ccc12 [tofacitinib, Tofacitinib]?
Answer: recovery at 30 min, 5 µg/mL ([1]; pH 7.4): 100 ± 2.84%; Free (unbound to plasma proteins) fraction in plasma ([1]; rat, plasma, 30 min, 5 µg/mL): 40.8%; fraction unbound at 30 min, 5 µg/mL ([1]; rat, plasma, Free (unbound to plasma proteins) fraction in plasma): 0.667; fraction unbound at 30 min, 5 µg/mL ([1]; rat, plasma, Plasma protein binding): 0.408; AUC(0-inf) [2, 10]: 4800 ng·h/mL; Cmax [2, 10]: 2960 ± 643 ng/mL; CL renal [2, 10]: 3.52 ± 1.8 mL/min/kg; half-life [2, 10]: 62.1 ± 16.7 min; k el [2, 10]: 0.000197 s⁻¹; bioavailability ([2]; Sprague-Dawley, rat, plasma, CON rats): 53.7%; AUC(0-inf) [2, 11]: 7950 ng·h/mL; Cmax [2, 11]: 4750 ± 1180 ng/mL; CL renal [2, 11]: 1.28 ± 0.786 mL/min/kg; half-life [2, 11]: 84.3 ± 21.2 min; k el [2, 11]: 0.000145 s⁻¹; bioavailability ([2]; Sprague-Dawley, rat, plasma, PHL rats): 51.4%; Tmax ([2]; Sprague-Dawley, rat, plasma, oral 20 mg/kg, PHL rats (n = 7)): 30 min; AUC0–∞ higher in PHL than in CON rats ([2]; oral 20 mg/kg): 65.6%; CLR lower in PHL than in CON rats ([2]; oral 20 mg/kg): 63.6%; Cmax higher in PHL than in CON rats ([2]; oral 20 mg/kg): 60.5%; Ae0–24 h (drug excreted unchanged in urine for 24 h) [2, 12]: 4.90 ± 1.95 % of dose; ka (absorption rate constant) [2, 12]: 0.127 ± 0.0389 min⁻¹; Ae0–24 h (drug excreted unchanged in urine for 24 h) [2, 13]: 3.02 ± 1.87 % of dose; ka (absorption rate constant) [2, 13]: 0.156 ± 0.0885 min⁻¹; Time after dosing at which drug was detected in plasma ([2]; oral 20 mg/kg, all CON and PHL rats): 5 min; Kp at 30 min [3]: < 1; AUC0–∞ higher in PHL than in CON rats ([4]; intravenous 10 mg/kg): 73.5%; CL slower in PHL than in CON rats ([4]; intravenous 10 mg/kg): 43.0%; Ae0–24 h (drug excreted unchanged in urine for 24 h) ([4]; intravenous 10 mg/kg, CON rats (n = 7)): 4.06 ± 1.89 % of dose; Ae0–24 h (drug excreted unchanged in urine for 24 h) ([4]; intravenous 10 mg/kg, PHL rats (n = 6)): 5.76 ± 2.53 % of dose; CLR estimated from the free fraction in plasma ([4]; CON rats): 4.66 mL/min/kg; CLR estimated from the free fraction in plasma ([4]; PHL rats): 6.05 mL/min/kg; Terminal half-life [5]: approximately 3.3 h; P-gp substrate status [6]: substrate of P-gp; AUC(0-inf) ([7]; AUC (AUC0–∞), CON rats (n = 7)): 4470 ng·h/mL; clearance ([7]; CON rats (n = 7)): 37.9 ± 4.85 mL/min/kg; clearance ([7]; PHL rats (n = 6)): 21.6 ± 1.13 mL/min/kg; CL renal ([7]; CON rats (n = 7)): 3.11 ± 1.58 mL/min/kg; CL renal ([7]; PHL rats (n = 6)): 2.47 ± 1.1 mL/min/kg; MRT ([7]; CON rats (n = 7)): 22.6 min; MRT ([7]; PHL rats (n = 6)): 22.7 min; half-life ([7]; CON rats (n = 7)): 29.6 ± 4.55 min; half-life ([7]; PHL rats (n = 6)): 34.5 ± 2.29 min; Vd ([7]; CON rats (n = 7)): 0.847 ± 0.191 L/kg; Vd ([7]; PHL rats (n = 6)): 0.49 ± 0.136 L/kg; k el ([7]; CON rats (n = 7)): 0.000398 s⁻¹; k el ([7]; PHL rats (n = 6)): 0.000337 s⁻¹; CLint lower in PHL than in CON rats [8]: 36.9%; Km, PHL versus CON rats [8]: did not differ significantly; CLint lower in PHL than in CON rats [9]: 51.3%; Km, PHL versus CON rats [9]: comparable
